Source: patent US20100190788A1, “Amide derivatives as kinase inhitors” (priority 2005, published 2010)
Counter-ions that a name gives are not always drawn.

Target: T1, human ROCKα/ROCKII mix (Homo sapiens, UniProt O75116)
T1 construct: purchased Upstate Biotechnology 14-451
Experiment: ROCK inhibition, fluorescence polarization (FP) assay with ROCK IMAP Kit
Format: biochemical

[1] = Table 1, compounds of Formula IV20

T1 sequence (O75116 whole entry): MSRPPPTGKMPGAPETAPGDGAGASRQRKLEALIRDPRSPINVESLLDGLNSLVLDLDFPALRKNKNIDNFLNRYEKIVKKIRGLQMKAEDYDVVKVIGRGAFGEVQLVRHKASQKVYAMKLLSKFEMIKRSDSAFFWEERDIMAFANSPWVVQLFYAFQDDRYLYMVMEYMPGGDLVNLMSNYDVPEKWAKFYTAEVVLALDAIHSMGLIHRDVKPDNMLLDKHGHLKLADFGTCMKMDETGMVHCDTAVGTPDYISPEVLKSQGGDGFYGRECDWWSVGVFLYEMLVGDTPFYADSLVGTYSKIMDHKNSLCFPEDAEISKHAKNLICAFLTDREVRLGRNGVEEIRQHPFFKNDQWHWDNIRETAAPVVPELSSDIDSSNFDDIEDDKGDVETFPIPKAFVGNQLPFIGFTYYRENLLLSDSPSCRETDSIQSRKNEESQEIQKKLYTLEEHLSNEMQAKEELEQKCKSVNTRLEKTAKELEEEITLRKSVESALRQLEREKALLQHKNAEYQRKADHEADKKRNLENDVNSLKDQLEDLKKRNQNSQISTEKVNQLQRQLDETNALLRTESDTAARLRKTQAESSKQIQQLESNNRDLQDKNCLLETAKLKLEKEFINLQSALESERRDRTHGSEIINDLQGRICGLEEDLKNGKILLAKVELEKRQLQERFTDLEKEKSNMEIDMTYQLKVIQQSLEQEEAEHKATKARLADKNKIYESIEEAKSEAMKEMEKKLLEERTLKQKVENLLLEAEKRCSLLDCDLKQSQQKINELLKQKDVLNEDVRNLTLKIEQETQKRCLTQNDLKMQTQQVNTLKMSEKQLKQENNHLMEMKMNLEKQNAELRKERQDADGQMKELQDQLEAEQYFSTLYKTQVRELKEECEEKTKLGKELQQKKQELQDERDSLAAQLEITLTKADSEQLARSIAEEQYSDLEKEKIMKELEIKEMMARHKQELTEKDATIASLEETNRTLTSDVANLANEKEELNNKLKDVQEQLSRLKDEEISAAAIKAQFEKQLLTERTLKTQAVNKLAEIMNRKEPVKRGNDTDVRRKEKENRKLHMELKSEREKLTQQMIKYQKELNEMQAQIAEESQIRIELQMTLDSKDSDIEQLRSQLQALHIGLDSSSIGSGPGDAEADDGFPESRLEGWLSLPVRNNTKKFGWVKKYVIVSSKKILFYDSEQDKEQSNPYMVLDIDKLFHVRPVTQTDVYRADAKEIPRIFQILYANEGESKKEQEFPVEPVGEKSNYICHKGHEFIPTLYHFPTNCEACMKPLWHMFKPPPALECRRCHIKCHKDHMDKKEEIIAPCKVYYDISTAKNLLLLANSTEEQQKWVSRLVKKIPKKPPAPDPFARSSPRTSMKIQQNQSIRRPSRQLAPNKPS

Row | Structure (SMILES) | IC50 [1] [µM] | further results
1 | NC(C(=O)NCCn1cccn1)c1ccc(C(=O)Nc2ccncc2)cc1 (stereo not drawn) [Compound 18, 4-[amino-(2-pyrazol-1-yl-ethylcarbamoyl)-methyl]-N-pyridin-4-yl-benzamide] | 0.5 to 5 | –
2 | NC(C(=O)NCc1cccc(Cl)c1)c1ccc(C(=O)Nc2ccncc2)cc1 (stereo not drawn) [Compound 7, 4-[amino-(3-chloro-benzylcarbamoyl)-methyl]-N-pyridin-4-yl-benzamide] | < 0.5 | –
3 | CN(CC(N)c1ccc(C(=O)Nc2ccncc2)cc1)S(=O)(=O)c1ccccc1F (stereo not drawn) [Compound 142, 4-{1-Amino-2-[(2-fluoro-benzenesulfonyl)-methyl-amino]-ethyl}-N-pyridin-4-yl-benzamide dihydrochloric acid salt] | – | IC50 (Table 4, compounds 132 to 156): 0.5 to 5 µM
4 | CN(CCO)C(=O)C(N)c1ccc(C(=O)Nc2ccncc2)cc1 (stereo not drawn) [Compound 42, 4-{amino-[(2-hydroxy-ethyl)-methyl-carbamoyl]-methyl}-N-pyridin-4-yl-benzamide] | 0.5 to 5 | –
5 | NC(C(=O)N1CCN(Cc2ccccc2F)CC1)c1ccc(C(=O)Nc2ccncc2)cc1 (stereo not drawn) [Compound 48, 4-{1-amino-2-[4-(2-fluoro-benzyl)-piperazin-1-yl]-2-oxo-ethyl}-N-pyridin-4-yl-benzamide] | 0.5 to 5 | –
6 | CC1CN(C(=O)CC(N)c2ccc(C(=O)Nc3ccncc3)cc2)CC(C)O1 (stereo not drawn) [Compound 113, 4-[1-amino-3-(2,6-dimethyl-morpholin-4-yl)-3-oxo-propyl]-N-pyridin-4-yl-benzamide] | – | IC50 (Table 3, compounds of Formula III20): < 0.5 µM
